Assay results taken from patent publication US6593365B1, “Diflunisal esters and related compounds” (The University of Queensland, priority 1997, dated 2003).
Values joined by “and” are separate entries in the source; they are usually repeats but may differ in a detail not shown here. Equal entries are not always repeated. Where two headings read alike, the source gives them in different places.

Assays:
[1] = Intrinsic (maximum) solubility in water at pH 1.5; assay type: physicochemical; conditions: 25 °C, pH 1.5, simulated gastric fluid
Description: The pH conditions were chosen to ensure that the solubility of the unionised species was estimated. […] Lea & Febiger/Philadelphia. […] […] The solvent (9.9 mL) was then added to the test tube. […] The test tube was sonicated for 15 minutes and centrifuged for 10 minutes (3000 g at 25° C.). An aliquot was filtered (Minisart 0.45 μm filter, Satorius) and diluted with HPLC mobile phase, then assayed. The tube was stored carefully in a 25° C. water bath after sampling and the remaining suspension was again sonicated and the process repeated 7 times at four hourly intervals. In these assays, standard curves were prepared by directly dissolving the esters in mobile phase. Concentrations for standard curves ranged from 1-50 μg/mL for all compounds. Furthermore, a manual injector (Waters Model U6K) was used (20 μL sample loop) which ensured that 20 μL was consistently injected onto the column and precluded the need for an internal standard.

[2] = In vitro non-enzymatic hydrolysis in Krebs-Henseleit buffer; assay type: physicochemical; conditions: for Hydrolysis rate constant (k): pH 7.4, 25° C., n=5; for half-life: pH 7.4
Description: These experiments were carried out both in Krebs-Henseleit buffer containing either no protein or 2% w/v BSA (bovine serum albumin, fraction V, Sigma) at pH 7.4 and 25±1° C.
Solutions of the derivatives in Krebs buffer (10 mL) was prepared in siliconised glass tubes. Each solution was sonicated for 5 minutes and centrifuged for 5 minutes (3000 g) at 25° C. to ensure maximum dissolution and to sediment any undissolved precipitate. About 7.5 mL of the supernatant was then transferred to a clean siliconised test tube and a 100 μL aliquot was removed and assayed. […] The rate of non-enzymatic hydrolysis (k) for each derivative was then estimated using the following equation: […]
where C1 is the concentration of the ester at any time (t), and C0 is the concentration of the ester at time zero. The half-life (t½) was determined using the formula: […]

[3] = target: T1, BSA (bovine serum albumin) (Bos taurus, UniProt P02769); assay: Protein binding by ultrafiltration in 2% BSA Krebs buffer; assay type: in vitro ADME; conditions: 2% BSA Krebs-Henseleit buffer pH 7.4, 37° C.; slope of Scatchard plot
T1 construct: BSA (bovine serum albumin, fraction V, Sigma); purchased Sigma; host or cells: bovine serum (fraction V)
T1 sequence (P02769 25-607): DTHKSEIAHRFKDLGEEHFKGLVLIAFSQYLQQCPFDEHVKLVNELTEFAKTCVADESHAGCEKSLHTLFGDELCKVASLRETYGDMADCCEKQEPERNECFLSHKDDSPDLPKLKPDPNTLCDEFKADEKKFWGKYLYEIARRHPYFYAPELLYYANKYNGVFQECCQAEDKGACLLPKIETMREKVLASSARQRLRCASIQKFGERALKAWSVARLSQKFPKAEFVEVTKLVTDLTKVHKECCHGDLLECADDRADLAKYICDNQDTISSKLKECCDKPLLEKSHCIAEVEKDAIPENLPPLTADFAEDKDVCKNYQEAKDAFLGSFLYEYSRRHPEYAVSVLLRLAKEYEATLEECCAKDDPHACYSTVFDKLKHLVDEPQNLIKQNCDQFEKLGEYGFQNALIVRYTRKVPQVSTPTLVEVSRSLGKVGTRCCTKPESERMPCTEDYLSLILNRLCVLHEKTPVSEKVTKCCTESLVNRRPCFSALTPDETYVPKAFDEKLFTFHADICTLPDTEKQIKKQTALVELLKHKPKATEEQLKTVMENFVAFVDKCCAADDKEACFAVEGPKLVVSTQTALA
Description: These experiments were carried out in Krebs-Henseleit buffer containing 2% w/v BSA (pH 7.4) and incubated at 37° C. for 30 minutes.
A known concentration of the ethanolic (≲1%) aspirin analogue or diflunisal ester stock solution was added to the 2% BSA Krebs solution to make final concentrations of 125 μM, 250 μM and 500 μM.
The unbound fraction (fu) of parent drug and its hydrolysis product were investigated using ultra-filtration: A 1.0 mL aliquot sample (in triplicate) was placed in a ultrafiltration tube (MPS-1, micro-partition system, Amicon) and centrifuged at 3000 g for 10 minutes. The ultra-filtrate was then assayed for parent drug and its hydrolysis product by HPLC.
To eliminate possible errors caused by hydrolysis, identical samples were placed in normal tubes and subjected to the same procedure. This control group (also in triplicate) was used to adjust for the percentage of hydrolysis in the ultra-filtrate under the experimental conditions.
The fu was determined as the ratio of the free concentration to total concentration of solutes. The binding constant (K) was determined from the slope of a Scatchard plot using following equation:
[Db]/[D]=−K[Db]vK[Pt] (3)
where [Db] is the concentration of bound drug, [D] is the concentration of drug, [Pt] is the concentration of total protein, and v is the number of independent binding sites available. This equation is plotted as the ratio [Db]/[D] versus [Db] and in this way the binding constant (K) is determined from the slope while vK[Pt] is determined from the intercept (Martin, 1983).

[4] = system: human platelet rich plasma; assay: Platelet aggregation induced by arachidonic acid; assay type: cell-based; conditions: compound 600 µM, 37° C., arachidonic acid 200 µM
Description: Platelet aggregation studies were carried out using a single channel Lumiaggregometer (Chrono-Log Company, Haverton, Pa.) at 37° C. using human platelet-rich and platelet-poor plasma. Platelet-rich plasma (PRP) with a platelet concentration of […] (measured with a Coulter counter) was prepared by centrifuging 3.8% citrated […] (1:9) at 1,500 rpm using a (Beckman) benchtop centrifuge at room temperature for 15 minutes. Platelet-poor plasma (PPP) was prepared by further centrifuging residual blood from platelet-rich plasma at 3,000 rpm for 30 minutes. Platelet-poor plasma was also confirmed b y Coulter counting for platelet content.
Platelet aggregation studies were preceded by pipetting 0.4 mL platelet-rich plasma into a stirred aggregometer tube and calibrate to 90% of recorder. Platelet-poor plasma was set to calibrate at 10% of recorder. Platelet aggregation was initiated by the addition of a arachidonic acid (Sigma) or ADP (Sigma).
10 mM solutions of each compound (TABLE 6) were prepared in 1 mL of normal saline solution (containing 4% BSA) before use. An aliquot (400 μL) of platelet-rich plasma was pipetted into a stirred aggregometer tube at 37° C. and 30 μL of test sample added simultaneously. This mixture was preincubated for varying period (3 to 45 minutes), then arachidonic acid (AA) was added (final conc.=200 μM) to initiate platelet aggregation. If no aggregation occurred, 20 μM ADP was added to confirm the vitality of the platelets (if the platelets are vital, ADP will induce this AA-test sample-plasma mixture to aggregate). This procedure is necessary to investigate whether the non-aggregation phenomenon is due to drug inhibition or simply due to inviable platelets (unable to respond to AA). The degree of aggregation was measure by calculating the area under the turbidimetric response curve (AUC).

SMILES: CCCCCCCC(=O)Oc1ccccc1C(=O)O [Compound C8SA, n-octanoylsalicylic acid]
- solubility [1]: 2 µg/mL and 8 µM
- Hydrolysis rate constant (k) ([2]; Krebs-Henseleit buffer 0% BSA, U = Undetectable): 0.0051 ± 0.0031 hour^1
- Hydrolysis rate constant (k) ([2]; Krebs-Henseleit buffer 2% BSA): 0.0010 ± 0.0004 hour^1
- half-life ([2]; Krebs-Henseleit buffer with 2% w/v BSA, 2% BSA Krebs buffer, read-out: Half-life (converted)): ~30 days
- half-life ([2]; bovine, Krebs-Henseleit buffer with 2% w/v BSA, read-out: Half life (t1/2) (converted)): 28.9 days
- half-life ([2]; protein-free Krebs-Henseleit buffer, Krebs-Henseleit buffer 0% BSA, first half life, t1/2=0.693/k, U = Undetectable, read-out: Half life (t1/2) (converted)): 5.66 days
- Protein binding constant (K) [3]: 13978 L/mol
- Platelet Aggregation (% of control) ([4]; preincubation 3 minutes): 95.4 ± 2.1 % of control
- Platelet Aggregation (% of control) ([4]; preincubation 5 minutes): 92.4 ± 0.1 % of control
- Platelet Aggregation (% of control) ([4]; preincubation 8 minutes): 87.3 ± 3.3 % of control
- Platelet Aggregation (% of control) ([4]; preincubation 10 minutes): 67.5 ± 2.7 % of control
- Platelet Aggregation (% of control) ([4]; preincubation 12 minutes): 27.3 ± 0.2 % of control
- Platelet Aggregation (% of control) ([4]; preincubation 15 minutes): 0 % of control
- Platelet Aggregation (% of control) ([4]; preincubation 20 minutes): 0 % of control
- Platelet Aggregation (% of control) ([4]; preincubation 25 minutes): 0 % of control
- Platelet Aggregation (% of control) ([4]; preincubation 45 minutes): 0 % of control
